Structures can show the parent of a compound that is named as a salt. Where two headings read alike, the source gives them in different places.
Assays:
5-HT1A [1] = molecular target: T1, 5-HT1A (Homo sapiens, UniProt P08908); conditions: literature value; cited from earlier work
T1 sequence (P08908 1-422): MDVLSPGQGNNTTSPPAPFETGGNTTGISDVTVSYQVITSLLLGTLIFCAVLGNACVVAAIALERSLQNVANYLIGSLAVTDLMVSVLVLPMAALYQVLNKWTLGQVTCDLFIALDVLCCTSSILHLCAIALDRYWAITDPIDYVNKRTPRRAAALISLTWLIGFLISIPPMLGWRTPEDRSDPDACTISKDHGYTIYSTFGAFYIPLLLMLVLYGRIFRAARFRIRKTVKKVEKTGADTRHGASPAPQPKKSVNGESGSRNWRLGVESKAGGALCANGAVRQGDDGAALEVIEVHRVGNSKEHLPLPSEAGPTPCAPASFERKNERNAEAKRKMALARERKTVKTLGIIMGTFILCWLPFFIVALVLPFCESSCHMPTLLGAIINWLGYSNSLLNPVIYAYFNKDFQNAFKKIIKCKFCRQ

D2 = D2 (Homo sapiens, UniProt P14416); conditions: literature value; cited from earlier work
D3 = D3 (Homo sapiens, UniProt P35462); conditions: literature value; cited from earlier work
5HT1A/1B = 5HT1A/1B agonist, literature value; cited from earlier work
hERG potassium channel = hERG potassium channel (Homo sapiens, UniProt Q12809); experiment: In vitro hERG experiment (whole-cell patch clamp); type: cell-based; conditions: whole-cell patch clamp, tail current, room temperature
Description: Extracellular fluid: 140 mM NaCl, 3.5 mM KCl, 1 mM MgCl2, 2 mM CaCl2, 10 mM Glucose, 10 mM HEPES, and 1.25 mM NaH2PO4, with the pH adjusted to 7.4 by NaOH.
Under an inverted microscope, recording electrodes were controlled by a glass electrode micromanipulator (micromanipulation) to contact with the cell. A negative voltage was applied to form a GΩ seal. After forming the GΩ seal, a rapid capacitance compensation was given. Under the continuous negative voltage, the cell membrane was ruptured to establish a whole-cell recording mode. In the whole-cell recording mode, a slow capacitance compensation was given, and the values of membrane capacitance and series resistance were recorded.
Voltage stimulation scheme for cellular hERG potassium current: the cell membrane clamping voltage was -80 mV; the voltage was first elevated from -80 mV to +30 mV, held for 2.5 s, and rapidly changed to and held at -50 mV for 4 s, thus exciting the hERG channel tail current. Data were acquired every 10 s. Leak current detection was performed at -50 mV.
The coverslip with seeded cells was placed in the recording chamber of the inverted microscope. Negative control and test compounds flowed through the recording chamber in an ascending order of concentration by gravity perfusion to quickly act on the cells. During the recording, the extracellular fluid was continuously circulated by a vacuum pump. The current detected in a cell in the negative control was used as the background for the cell. Each compound concentration was allowed to act for 5 min or until the current was stabilized. All experiments were performed at room temperature.
The current of each compound concentration was first normalized according to (peak tail current compound)/(peak tail current vehicle), and then the corresponding inhibition rate was calculated according to (1 - (peak tail current compound)/(peak tail current vehicle)). Basic statistics were calculated for each concentration, including mean, standard deviation (SD), standard error (SE), and replicates (n). […] Curve fitting and calculation of IC50 were performed by GraphPad Prism 5.0 software.

5-HT1A [2] = molecular target: T1, 5-HT1A; experiment: In vitro 5HT1A receptor function experiment (cAMP, forskolin-stimulated HEK293/5HT1A cells); type: cell-based; design: expressed in transfected cells; host or cells: HEK293
Description: 1.1.1 Cell information: HEK293/5HT1A: a stably transfected cell strain HEK293/5HT1A constructed by adopting 5HT1A receptor lentivirus to infect HEK293; growth culture medium: DMEM, 10% FBS, and 0.6 µg/mL puro; and cryopreservation culture medium: 70% culture medium, 20% FBS, and 10% DMSO.

Dopamine D2L receptor = Dopamine D2L receptor (Homo sapiens, UniProt P14416); experiment: In vitro dopamine D2L receptor function experiment (cAMP, forskolin-stimulated HEK293/D2L cells)
Dopamine D2L receptor, sequence (P14416 whole entry): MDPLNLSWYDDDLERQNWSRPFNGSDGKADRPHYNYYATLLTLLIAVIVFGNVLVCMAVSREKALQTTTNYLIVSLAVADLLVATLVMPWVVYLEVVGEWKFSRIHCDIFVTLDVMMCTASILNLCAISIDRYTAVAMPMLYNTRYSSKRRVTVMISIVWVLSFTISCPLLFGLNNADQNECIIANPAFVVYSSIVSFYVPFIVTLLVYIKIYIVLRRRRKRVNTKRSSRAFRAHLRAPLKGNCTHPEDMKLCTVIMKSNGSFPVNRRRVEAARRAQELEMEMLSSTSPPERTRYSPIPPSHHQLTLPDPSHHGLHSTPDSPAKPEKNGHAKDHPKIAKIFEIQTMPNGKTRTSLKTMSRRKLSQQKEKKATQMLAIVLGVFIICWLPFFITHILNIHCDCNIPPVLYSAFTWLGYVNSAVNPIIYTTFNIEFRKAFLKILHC
Description: • (1) Compound preparation: The test compounds and dopamine were diluted to a concentration of 200 nM for later use. • (2) Experimental buffer preparation: The 5× stimulation buffer was diluted to 1× with ddH2O, and IBMX was added to a final concentration of 0.5 mM. The mixture was mixed well for later use. • (3) The cells were digested with trypsin, and centrifugation was performed after the digestion was terminated. The cell pellet was resuspended in 10 mL of pre-warmed HBSS and centrifuged again. Then, 1 mL of stimulation buffer was added for resuspension, and 20 µL of the cell suspension was taken for cell counting. • (4) An appropriate amount of the cell suspension was taken and diluted to 0.4 × 10^6 cells/mL, and 5 µL of the diluted cell suspension was added to each well of a cell plate and centrifuged at 1000 rpm for 1 min. • (5) Compound dilution and transfer using bravo: The compounds were diluted 4-fold to obtain 8 concentration points in the compound plate. The diluted compounds in the whole plate were then transferred to a 384-well white plate using bravo and centrifuged at 1000 rpm for 1 min. • (6) The experimental plate was sealed and incubated at room temperature for 15 min. • (7) Forskolin, prepared with DMSO, was added at 25.1 nL/well using Tecan D300e, with a mother liquor concentration of 0.2 mM and a final concentration of 0.25 µM, followed by centrifugation at 1000 rpm for 1 min. • (8) The plate was sealed and incubated at room temperature for 45 min. • (9) cAMP standard curve preparation: A 4-fold serial dilution was performed to obtain 8 concentration points from a starting concentration of 2848 nM. Then, 10 µL of each dilution was taken and added to the experimental plate, with a maximum concentration of 712 nM. • (10) 5 µL of cAMP-d2 solution (stock solution diluted at 1:20 with lysis buffer) was added to the experimental plate, and the plate was centrifuged at 1000 rpm for 1 min. • (11) Then, 5 µL of Anti-cAMP-Cryptate solution (stock solution diluted at 1:20 with lysis buffer) was added to the experimental plate, and the plate was centrifuged at 1000 rpm for 1 min. • (12) The experimental plate was incubated at room temperature for 45 min and centrifuged at 1000 rpm for 1 min before reading. • (13) Plate reading was performed using Envision, with excitation light at 320 nm and emission lights at 620 nm and 665 nm. The derived data were analyzed, and the maximum activation rates Emax and EC50 of the compounds were calculated.

D3, sequence (P35462 whole entry): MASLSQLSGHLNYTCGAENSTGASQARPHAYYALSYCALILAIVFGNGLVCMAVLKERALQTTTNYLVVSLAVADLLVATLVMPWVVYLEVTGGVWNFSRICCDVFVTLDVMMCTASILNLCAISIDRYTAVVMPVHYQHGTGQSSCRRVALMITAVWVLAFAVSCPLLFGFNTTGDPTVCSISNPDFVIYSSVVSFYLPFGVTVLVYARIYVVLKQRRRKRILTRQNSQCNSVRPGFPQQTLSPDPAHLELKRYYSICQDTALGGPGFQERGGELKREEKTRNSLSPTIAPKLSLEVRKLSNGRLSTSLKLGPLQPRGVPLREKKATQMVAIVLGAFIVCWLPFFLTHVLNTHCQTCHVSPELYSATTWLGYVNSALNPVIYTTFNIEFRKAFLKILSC
D2, sequence (P14416 whole entry): as the sequence (P14416 whole entry) above
hERG potassium channel, sequence (Q12809 whole entry): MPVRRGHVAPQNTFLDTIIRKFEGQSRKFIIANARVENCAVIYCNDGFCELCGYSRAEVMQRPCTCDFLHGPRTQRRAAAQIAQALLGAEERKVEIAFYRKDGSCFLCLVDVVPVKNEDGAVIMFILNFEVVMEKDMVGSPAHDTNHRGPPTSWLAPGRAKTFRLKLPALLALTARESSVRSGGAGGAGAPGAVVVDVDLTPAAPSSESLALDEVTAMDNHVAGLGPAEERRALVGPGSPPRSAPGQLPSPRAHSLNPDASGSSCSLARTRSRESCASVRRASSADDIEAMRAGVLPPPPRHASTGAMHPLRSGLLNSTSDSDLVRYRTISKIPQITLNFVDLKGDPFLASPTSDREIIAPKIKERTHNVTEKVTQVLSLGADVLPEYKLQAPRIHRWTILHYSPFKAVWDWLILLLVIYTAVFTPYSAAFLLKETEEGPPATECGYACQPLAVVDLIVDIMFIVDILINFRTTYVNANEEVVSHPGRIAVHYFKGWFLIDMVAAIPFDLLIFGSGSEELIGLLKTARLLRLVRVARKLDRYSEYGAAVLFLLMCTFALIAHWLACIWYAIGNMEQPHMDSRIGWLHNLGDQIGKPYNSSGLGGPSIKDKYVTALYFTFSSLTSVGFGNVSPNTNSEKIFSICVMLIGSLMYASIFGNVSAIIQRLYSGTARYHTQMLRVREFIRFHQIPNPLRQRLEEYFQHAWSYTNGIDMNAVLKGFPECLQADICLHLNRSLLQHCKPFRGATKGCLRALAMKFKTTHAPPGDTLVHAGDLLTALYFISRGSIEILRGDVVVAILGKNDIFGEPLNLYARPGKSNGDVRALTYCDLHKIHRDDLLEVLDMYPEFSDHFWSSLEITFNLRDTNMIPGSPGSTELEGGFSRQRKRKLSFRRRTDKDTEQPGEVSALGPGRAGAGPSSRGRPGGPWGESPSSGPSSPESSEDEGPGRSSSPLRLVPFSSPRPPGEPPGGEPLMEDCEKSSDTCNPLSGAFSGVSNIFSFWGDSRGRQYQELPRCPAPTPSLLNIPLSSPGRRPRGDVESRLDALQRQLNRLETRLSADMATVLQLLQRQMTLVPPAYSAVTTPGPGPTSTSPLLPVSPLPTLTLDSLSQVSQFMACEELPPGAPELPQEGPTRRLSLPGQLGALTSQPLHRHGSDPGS

## CN1CCN(c2cccc3[nH]c(=O)oc23)CC1 [Pardoprunox]
5-HT1A [1]
  EC50: 500 nM
D2
  EC50: 10 nM
D3
  EC50: 0.6 nM

## c1cc2c(c(N3CCNCC3)c1)OCCO2 [Eltoprazine]
5HT1A/1B
  EC50: 148 nM

## O=c1[nH]c2cccc(N3CCN(Cc4cccc(-c5ccccc5)c4)CC3)c2o1 [Bifeprunox]
5-HT1A [1]
  EC50: 47.8 nM
D2
  EC50: 39.8 nM
D3
  IC50: 15.2 nM

## Cc1ccc(CNCC2(F)CCN(C(=O)c3ccc(F)c(Cl)c3)CC2)nc1 [NLX-112]
5-HT1A [1]
  5-HT1A Emax: 84%

## CCCN(CC1CCN(C(=O)OC)CC1)C1CCc2nc(N)sc2C1 (stereo not shown) [Comparative Example 2, Methyl 4-(((2-amino-4,5,6,7-tetrahydrobenzo[d]thiazol-6-yl)(propyl)amino)methyl)piperidine-1-carboxylate hydrochloride, reference compound]
hERG potassium channel
  IC50: 4.7 µM
5-HT1A [2]; forskolin 1 µM
  EC50: 247 nM
5-HT1A [2]; maximum activation rate
  Emax: 95.4%
Dopamine D2L receptor
  EC50: 1.68 nM
Dopamine D2L receptor; HEK293, read-out: D2L Emax
  Emax: 112%

Source: patent EP4570798A1, “AROMATIC HETEROCYCLIC CYCLOHEXYL AMINOALKYL PIPERIDINE DERIVATIVE, PREPARATION METHOD AND USE THEREOF” (Jiangsu NHWA Pharmaceutical Co., Ltd, priority 2022, dated 2024)
